Reference: US9408856B2, “Topical steroidal formulations” (Temple University—Of The Commonwealth System of Higher …, priority 2008, dated 2016)
“And” between values parts separate entries of the source, which are not always exact repeats. Equal values may be shown once.

How the values were obtained:
[1] = system: TPA-stimulated epidermal DNA synthesis in mouse epidermis; test: TPA-induced epidermal DNA synthesis in mouse epidermis, oral fluasterone; type: in vivo, CD-1 mice; conditions: 20 h
Experimental: In dose-response experiments the anti-hyperplastic efficacy of fluasterone in TPA-treated mouse epidermis to determine bioavailability following different routes of administration was measured. Mice were treated with a single dose of fluasterone (either orally, subcutaneously, or transdermally) followed by a single application of TPA to the shaved back one hour latter. In case of transdermal administration, fluasterone is applied in a topical formulation to the shaved abdomen to allow for systemic absorption to the back of the animal. Twenty hours after TPA application, the mice are injected with 60 μCi of [3H] thymidine, sacrificed 20 minutes later, and a 2×2 cm2 of skin from the shaved back is excised and processed for the determination of the amount of [3H] thymidine incorporated per unit of epidermal DNA. (Hennings et. al., Cancer Res. 28:543-552, 1968).
Fluasterone suspensions were prepared using sesame oil as vehicle. Micronized fluasterone was obtained from Pharmaceutics International, Inc. Five suspensions were prepared—100 mg/kg (13 mg/mL), 200 mg/kg (26.5 mg/mL), 400 mg/kg (52.4 mg/mL), 800 mg/kg (105.5 mg/mL), and 1200 mg/kg (158.3 mg/mL). The fluasterone for each suspension was weighed, placed into a plastic vial, and the required volume of sesame oil was added to the vial. The fluasterone was suspended in the sesame oil with the use of a Tekmar Tissumizer. Magnetic stirrer bars were added to the various suspensions which were stirred on a magnetic stirrer prior to treatment. Control and TPA groups received sesame oil alone.
Female CD-1 mice were obtained from Charles River Laboratories, Wilmington, Mass. at 35-37 days of age.
The mice were housed three per cage in plastic shoebox cages on Alphacel bedding with 12 hours of alternating light and dark in the CAF Animal Facility. The mice had ad libitum access to Purina 5.015 chow and acidified tap water (pH≦2.6). The mice were shaved, weighed and distributed into groups of three. • Control The mice were treated orally with 0.2 mL of sesame oil. One hour after treatment with sesame oil, the mice were treated topically with 0.2 mL of acetone. • TPA The mice were treated orally with 0.2 mL of sesame oil. […] One hour after treatment with fluasterone, the mice were treated topically with 2 μg of TPA in 0.2 mL of acetone.
The mice were sacrificed 20 hours after treatment by an overdose of CO2. Twenty minutes prior to sacrifice, the mice were injected with 60 μCi of [^3H]thymidine (Amersham). The mice were treated with a depilatory to remove any residual hair. A 2×2 cm^2 piece of skin was excised, placed in ice water for 30 seconds, then in 55° C. water for 30 seconds, then in ice water again for 30 seconds. The epidermis was s raped off using a scalpel and the scrapings were placed into ice cold 0.4N TCA. The scrapings were homogenized using a Tekmar Tissumizer (80% power for 30 seconds). The homogenates were centrifuged for 20 minutes at 3,000×g. The precipitates were washed 3× with 0.2N TCA. The TCA was removed and the precipitates were stored at −20° C. overnight. The next day, the precipitates were washed 2× with absolute ethanol. The DNA in each sample was hydrolyzed with 0.5N TCA for 30 minutes at 90°. The tubes were centrifuged for 20 minutes at 3000×g. A 0.2 mL aliquot of each hydrolysate was counted in a LKB Rackbeta scintillation counter using Scintiverse II BD as the counting medium. DNA content was determined by the Burton diphenylamine assay.
102.7 mg of Micronized fluasterone I was weighed using a Mettler AE-50 balance, transferred to a glass scintillation vial, and homogenized in 6.0 mL of carboxymethylcellulose-Tween 80 using a Tekmar Tissumizer (200 mg/kg micronized I suspension, 200 MI). 88.4 mg of micronized fluasterone II was then weighed, transferred to a glass scintillation vial, and homogenized in 5.2 mL of CMC-Tween using a Tekmar Tissumizer (200 mg/kg micronized II suspension, 200 MII).

[2] = system: TPA-stimulated epidermal DNA synthesis in mouse epidermis; test: TPA-induced epidermal DNA synthesis in mouse epidermis, transdermal fluasterone; type: in vivo, CD-1 mice; conditions: 20 h
[3] = Table 18, TPA 2 μg topical after CMC-Tween p.o. only, single mice
[4] = TPA 2 μg (back) after Cremophor EL vehicle only, single mice
[5] = TPA 2 μg (back) after Cremophor EL:ethanol (50:50 v/v) vehicle only, single mice
[6] = TPA 2 μg (back) after Tween 80:ethanol (50:50 v/v) vehicle only, single mice
[7] = TPA 2 μg (back) after carbitol vehicle only, single mice
[8] = TPA 2 μg (back) after ethanol:limonene:isopropyl myristate (81:15:4) vehicle only, single mice
[9] = TPA 2 μg (back) after ethanol:limonene:isopropyl myristate (81:15:4) vehicle only, single mice and group mean
[10] = TPA 2 μg (back) after ethanol:water:Tween 80 (76:19:5) vehicle only, single mice
[11] = TPA 2 μg (back) after ethanol:water:Tween 80 (76:19:5) vehicle only, single mice and group mean

## CCCCCCCCCCCCCC(=O)O[C@@H]1[C@@H](C)[C@@]2(O)[C@@H](C=C(CO)C[C@]3(O)C(=O)C(C)=C[C@@H]23)[C@@H]2C(C)(C)[C@]12OC(C)=O [TPA, 12-O-tetradecanoylphorbol-13-acetate, reference compound]
[1]; Table 4, TPA 2 μg topical, sesame oil p.o. only, 2×2 cm2 skin, group mean
  μg DNA: 14.1 ± 1.3 µg
[1]; Table 4, TPA 2 μg topical, sesame oil p.o. only, group mean
  cpm/μg DNA: 641.5 ± 115.2 cpm/μg DNA
[1]; [3]
  corrected cpm: 9,877 cpm and 8,235 cpm and 8,699 cpm
  μg DNA/0.2 ml: 28.0 μg DNA/0.2 ml and 31.9 μg DNA/0.2 ml and 28.2 μg DNA/0.2 ml
[1]; Table 18, TPA 2 μg topical after CMC-Tween p.o. only, single mice and group mean
  cpm/μg DNA: 351.6 cpm/μg DNA and 258.6 cpm/μg DNA and 308.5 cpm/μg DNA
[1]; Table 18, TPA 2 μg topical after CMC-Tween p.o. only, single mice and group mean, group mean
  cpm/μg DNA: 306.1 ± 46.8 cpm/μg DNA
[1]; Table 20, TPA 2 μg topical after sesame oil and suspension vehicle p.o. only, group mean
  μg DNA: 13.9 ± 0.3 µg
[2]; [4]
  corrected cpm: 16,842 cpm and 13,849 cpm
  cpm: 16,877 cpm and 13,884 cpm
  μg DNA/0.2 mL: 28.7 μg DNA/0.2 mL and 30.4 μg DNA/0.2 mL
[2]; TPA 2 μg (back) after Cremophor EL vehicle only, single mice and group mean
  cpm/μg DNA: 586.8 cpm/μg DNA and 455.6 cpm/μg DNA and 521.2 ± 92.8 cpm/μg DNA
[2]; [5]
  corrected cpm: 54,709 cpm and 54,308 cpm
  cpm: 54,744 cpm and 54,343 cpm
  μg DNA/0.2: 36.9 μg DNA/0.2 and 35.7 μg DNA/0.2
[2]; TPA 2 μg (back) after Cremophor EL:ethanol (50:50 v/v) vehicle only, single mice and group mean
  cpm/μg DNA: 1,482.6 cpm/μg DNA and 1,521.2 cpm/μg DNA
[2]; [6]
  corrected cpm: 4,276 cpm and 3,114 cpm
  cpm: 4,301 cpm and 3,139 cpm
  μg DNA/0.2: 17.5 μg DNA/0.2 and 18.6 μg DNA/0.2
[2]; TPA 2 μg (back) after Tween 80:ethanol (50:50 v/v) vehicle only, single mice and group mean
  cpm/μg DNA: 244.3 cpm/μg DNA and 167.4 cpm/μg DNA
[2]; [7]
  corrected cpm: 6,729 cpm and 7,496 cpm
  cpm: 6,764 cpm and 7,531 cpm
  μg DNA/0.2 mL: 20.3 μg DNA/0.2 mL and 21.2 μg DNA/0.2 mL
[2]; [8]
  corrected cpm: 8,545 cpm and 11,109 cpm
  cpm: 8,574 cpm and 11,138 cpm
[2]; [9]
  cpm/μg DNA: 277.4 cpm/μg DNA and 322.0 cpm/μg DNA
  μg DNA/0.2 mL: 30.8 μg DNA/0.2 mL and 34.5 μg DNA/0.2 mL
[2]; [10]
  corrected cpm: 7,274 cpm and 6,557 cpm
  cpm: 7,303 cpm and 6,586 cpm
[2]; [11]
  cpm/μg DNA: 208.4 cpm/μg DNA and 186.3 cpm/μg DNA
  μg DNA/0.2 mL: 34.9 μg DNA/0.2 mL and 35.2 μg DNA/0.2 mL
